{"source": "paper PMC10905588", "about": "(ACS Omega, 2024)", "key": {"[1]": {"test_system": "STZ-induced diabetic rat model", "conditions": "during the course of 0–300 min; cited from earlier work"}, "[2]": {"test_system": "streptozotocin (STZ)-induced diabetic rat model", "assay": "glycated hemoglobin", "conditions": "for HbA1c (%): Table 4: dose printed 6 mg/kg for WA1-WA3, 0.5 mg/kg glibenclamide, n = 8; for HbA1c level: text: WA1, WA2, WA3 at 12 mg/kg, diabetic control 10.12%"}, "[3]": {"test_system": "streptozotocin (STZ)-induced diabetic rat model", "assay": "serum lipid profile in STZ-induced diabetic rats", "assay_type": "in vivo, Wistar rats", "conditions": "28th day, 12 mg/kg oral (glibenclamide 0.5 mg/kg), mean ± SEM, n = 8"}, "[4]": {"test_system": "streptozotocin (STZ)-induced diabetic rat model", "assay": "kidney and liver function tests in STZ-induced diabetic rats", "assay_type": "in vivo, Wistar rats", "conditions": "serum, 28th day; 12 mg/kg oral (glibenclamide 0.5 mg/kg); mean ± SEM, n = 8"}, "[5]": {"test_system": "streptozotocin (STZ)-induced diabetic rat model", "assay": "blood glucose level in STZ-induced diabetic rats", "conditions": "WA1-WA3 12 mg/kg oral, glibenclamide 0.5 mg/kg; mean ± SEM, n = 8"}, "[6]": {"assay": "body weight of STZ-induced diabetic rats", "conditions": "WA1-WA3 12 mg/kg; mean ± SEM, n = 8"}, "α-glucosidase [7]": {"molecular_target": "T1, α-glucosidase (Saccharomyces cerevisiae, UniProt P53341)", "T1 sequence (P53341 whole entry)": "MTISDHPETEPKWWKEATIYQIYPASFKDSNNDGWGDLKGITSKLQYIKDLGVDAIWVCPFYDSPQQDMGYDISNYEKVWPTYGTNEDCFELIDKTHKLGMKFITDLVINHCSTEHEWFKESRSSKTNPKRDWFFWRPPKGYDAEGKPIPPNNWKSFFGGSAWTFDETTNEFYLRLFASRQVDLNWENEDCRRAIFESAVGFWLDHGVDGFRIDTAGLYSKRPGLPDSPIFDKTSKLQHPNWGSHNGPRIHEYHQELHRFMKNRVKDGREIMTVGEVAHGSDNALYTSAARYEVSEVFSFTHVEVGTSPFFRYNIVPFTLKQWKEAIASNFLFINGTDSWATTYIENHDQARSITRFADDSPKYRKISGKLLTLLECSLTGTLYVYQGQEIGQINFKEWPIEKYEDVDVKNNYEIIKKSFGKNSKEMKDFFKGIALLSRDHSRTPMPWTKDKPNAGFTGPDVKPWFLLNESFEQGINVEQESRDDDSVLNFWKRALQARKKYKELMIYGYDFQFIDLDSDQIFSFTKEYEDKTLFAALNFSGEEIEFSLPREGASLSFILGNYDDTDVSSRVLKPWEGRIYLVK", "conditions": "read-out: IC50 α-glucosidase; cited from earlier work"}, "α-amylase [8]": {"molecular_target": "T2, α-amylase (Homo sapiens, UniProt P04746)", "T2 sequence (P04746 16-511)": "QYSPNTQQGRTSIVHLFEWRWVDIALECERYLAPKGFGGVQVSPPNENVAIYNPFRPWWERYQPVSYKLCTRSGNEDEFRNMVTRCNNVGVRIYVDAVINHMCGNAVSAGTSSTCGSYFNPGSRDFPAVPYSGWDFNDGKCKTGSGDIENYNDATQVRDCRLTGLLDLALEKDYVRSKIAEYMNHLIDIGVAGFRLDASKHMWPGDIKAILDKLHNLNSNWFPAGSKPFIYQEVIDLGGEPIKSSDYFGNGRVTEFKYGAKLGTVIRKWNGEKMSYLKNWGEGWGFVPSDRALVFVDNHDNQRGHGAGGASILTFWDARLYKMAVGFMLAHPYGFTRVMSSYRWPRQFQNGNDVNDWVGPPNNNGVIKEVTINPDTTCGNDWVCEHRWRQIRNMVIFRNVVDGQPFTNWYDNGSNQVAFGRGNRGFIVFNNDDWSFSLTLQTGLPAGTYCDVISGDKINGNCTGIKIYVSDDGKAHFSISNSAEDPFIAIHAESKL", "conditions": "read-out: IC50 α-amylase; cited from earlier work"}, "acute toxicity study": {"assay": "acute toxicity study", "assay_type": "in vivo"}, "α-glucosidase [9]": {"molecular_target": "T1, α-glucosidase", "assay": "in-vitro α-glucosidase inhibitory activity", "assay_type": "biochemical"}, "α-amylase [10]": {"molecular_target": "T2, α-amylase", "assay": "in-vitro α-amylase inhibitory activity", "assay_type": "biochemical"}}, "note": "Where two headings read alike, the source gives them in different places. Marks after values point to notes of the source that are not given here."}
{"smiles": "COc1cc2[nH]c3c4c(c(C)cc3c2cc1OC)OC(C)(C)C=C4", "note": "[koenidine]", "values": [{"measurement": "lowering of blood glucose levels", "setting": "[1]", "value": "~22.5", "unit": "%"}]}
{"smiles": "CN(C)C(=N)N=C(N)N", "note": "[metformin, reference compound]", "values": [{"measurement": "lowering of blood glucose levels", "setting": "[1]", "value": 25.9, "unit": "%"}]}
{"smiles": "COc1ccc(Cl)cc1C(=O)NCCc1ccc(S(=O)(=O)NC(=O)NC2CCCCC2)cc1", "note": "[glibenclamide, reference compound]", "values": [{"measurement": "HbA1c (%)", "setting": "[2]", "value": "6.91*** %"}, {"measurement": "HbA1c level", "setting": "[2]", "value": 6.91, "unit": "%"}, {"measurement": "HDL", "setting": "[3]", "value": "39.64 ± 1.51", "unit": "mg/dL"}, {"measurement": "LDL", "setting": "[3]", "value": "40.17 ± 1.80", "unit": "mg/dL"}, {"measurement": "TC (total cholesterol)", "setting": "[3]", "value": "84.31 ± 4.95", "unit": "mg/dL"}, {"measurement": "TG (triglycerides)", "setting": "[3]", "value": "102.97 ± 3.69", "unit": "mg/dL"}, {"measurement": "kidney: creatinine", "setting": "[4]", "value": "1.01 ± 0.07", "unit": "mg/dL"}, {"measurement": "kidney: urea", "setting": "[4]", "value": "40.17 ± 1.90", "unit": "mg/dL"}, {"measurement": "liver: ALP", "setting": "[4]", "value": "133.67 ± 3.71", "unit": "U/L"}, {"measurement": "liver: ALT", "setting": "[4]", "value": "71.43 ± 2.13", "unit": "U/L"}, {"measurement": "liver: AST", "setting": "[4]", "value": "55.03 ± 1.94", "unit": "U/L"}, {"measurement": "blood glucose level, day 1st", "setting": "[5]", "value": "458.12 ± 6.15", "unit": "mg/dL"}, {"measurement": "blood glucose level, day 7th", "setting": "[5]", "value": "349.36 ± 4.98", "unit": "mg/dL"}, {"measurement": "blood glucose level, day 14th", "setting": "[5]", "value": "248.70 ± 6.96", "unit": "mg/dL"}, {"measurement": "blood glucose level, day 21st", "setting": "[5]", "value": "138.49 ± 4.86", "unit": "mg/dL"}, {"measurement": "blood glucose level, day 28th", "setting": "[5]", "value": "102.19 ± 5.11", "unit": "mg/dL"}, {"measurement": "body weight, 1st day", "setting": "[6]", "value": "184.11 ± 5.15"}, {"measurement": "body weight, 7th day", "setting": "[6]", "value": "183.91 ± 4.87"}, {"measurement": "body weight, 14th day", "setting": "[6]", "value": "189.16 ± 5.13"}, {"measurement": "body weight, 21st day", "setting": "[6]", "value": "187.63 ± 4.86"}, {"measurement": "body weight, 28th day", "setting": "[6]", "value": "194.37 ± 4.90"}]}
{"smiles": "CC(C)=CCCC1(C)C=Cc2c(c(C)cc3c2[nH]c2ccccc23)O1", "note": "(stereo not drawn) [mahanimbine]", "values": [{"measurement": "IC50", "setting": "α-glucosidase [7]", "value": 299, "unit": "µM"}, {"measurement": "IC50", "setting": "α-amylase [8]", "value": 250, "unit": "µM"}]}
{"smiles": "COc1ccc2c(c1)[nH]c1c3c(c(C)cc12)OC(C)(C)C=C3", "note": "[O-methylmurrayamine A]", "values": [{"measurement": "lowering of blood glucose levels", "setting": "[1]", "value": "roughly 24.6%"}]}
{"smiles": "COc1ccc2cc3[n+](cc2c1OC)CCc1cc2c(cc1-3)OCO2", "note": "[WA1, berberine]", "values": [{"measurement": "HbA1c (%)", "setting": "[2]", "value": "7.55*** %"}, {"measurement": "HbA1c level", "setting": "[2]", "value": 7.55, "unit": "%"}, {"measurement": "nontoxic up to (acute toxicity profile)", "setting": "acute toxicity study; oral doses 5-500 mg/kg b.w., observed up to 14 days", "value": "up to 500 mg/kg"}, {"measurement": "behavior in acute toxicity profile", "setting": "acute toxicity study; up to 500 mg/kg (b.w.)", "value": "normal behavior"}, {"measurement": "HDL", "setting": "[3]", "value": "35.11 ± 1.66", "unit": "mg/dL"}, {"measurement": "LDL", "setting": "[3]", "value": "56.33 ± 2.79", "unit": "mg/dL"}, {"measurement": "TC (total cholesterol)", "setting": "[3]", "value": "92.67 ± 4.81", "unit": "mg/dL"}, {"measurement": "TG (triglycerides)", "setting": "[3]", "value": "112.17 ± 3.10", "unit": "mg/dL"}, {"measurement": "kidney: creatinine", "setting": "[4]", "value": "1.07 ± 0.06", "unit": "mg/dL"}, {"measurement": "kidney: urea", "setting": "[4]", "value": "47.30 ± 1.51", "unit": "mg/dL"}, {"measurement": "liver: ALP", "setting": "[4]", "value": "145.69 ± 3.78", "unit": "U/L"}, {"measurement": "liver: ALT", "setting": "[4]", "value": "88.30 ± 2.45", "unit": "U/L"}, {"measurement": "liver: AST", "setting": "[4]", "value": "71.16 ± 1.79", "unit": "U/L"}, {"measurement": "IC50", "setting": "α-glucosidase [9]", "value": 569, "unit": "µM"}, {"measurement": "blood glucose level, day 1st", "setting": "[5]", "value": "460.11 ± 5.17", "unit": "mg/dL"}, {"measurement": "blood glucose level, day 7th", "setting": "[5]", "value": "376.70 ± 4.98", "unit": "mg/dL"}, {"measurement": "blood glucose level, day 14th", "setting": "[5]", "value": "268.21 ± 5.79", "unit": "mg/dL"}, {"measurement": "blood glucose level, day 21st", "setting": "[5]", "value": "176.33 ± 4.69", "unit": "mg/dL"}, {"measurement": "blood glucose level, day 28th", "setting": "[5]", "value": "133.01 ± 5.18", "unit": "mg/dL"}, {"measurement": "IC50", "setting": "α-amylase [10]", "value": 200, "unit": "µM"}, {"measurement": "body weight, 1st day", "setting": "[6]", "value": "183.77 ± 5.01"}, {"measurement": "body weight, 7th day", "setting": "[6]", "value": "180.33 ± 4.91"}, {"measurement": "body weight, 14th day", "setting": "[6]", "value": "178.16 ± 4.96"}, {"measurement": "body weight, 21st day", "setting": "[6]", "value": "174.80 ± 4.77"}, {"measurement": "body weight, 28th day", "setting": "[6]", "value": "170.88 ± 4.84"}]}
